Values joined by “and” are separate entries in the source; they are usually repeats but may differ in a detail not shown here. Equal values may be shown once. Inconclusive results and toxic doses are left out. Rule for the calls: active = survival T/C of 150% or more; inactive = T/C below 125% in these data.
Test system: BDF1 mice, P388 leukemia ip, median survival T/C
Test: NCI In Vivo Anticancer Drug Screen. Data for tumor model P388 Leukemia (intraperitoneal) in B6D2F1 (BDF1) mice
Details: endpoint: median survival time, higher = longer survival
How it was run: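 Transplantable tumour in mice; compound vs vehicle dosing; survival scored; ratio of treated to control reported.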

[1] = dose: 12.5 mg/kg/injection, schedule: Q01DX009 (ip), vehicle: saline
[2] = dose: 25.0 mg/kg/injection, schedule: Q01DX009 (ip), vehicle: saline
[3] = dose: 100.0 mg/kg/injection, schedule: Q04DX003 (ip), vehicle: saline with Tween-80
[4] = dose: 50.0 mg/kg/injection, schedule: Q01DX009 (ip), vehicle: saline
[5] = dose: 100.0 mg/kg/injection, schedule: Q01DX009 (ip), vehicle: saline
[6] = dose: 100.0 mg/kg/injection, schedule: Q01DX001 (ip), vehicle: saline with Tween-80
[7] = dose: 200.0 mg/kg/injection, schedule: Q01DX001 (ip), vehicle: saline with Tween-80
[8] = dose: 200.0 mg/kg/injection, schedule: Q01DX009 (ip), vehicle: saline

Measured: T/C

COc1ccc2c(c1)CCN(C1=C(C)C(=O)CC1)C2CC(=O)O (centres undefined)
inactive: dose: 100.0 mg/kg/injection, schedule: Q01DX001 (ip), vehicle: saline sonified 100 % of control | dose: 200.0 mg/kg/injection, schedule: Q01DX001 (ip), vehicle: saline sonified 100 % of control | dose: 400.0 mg/kg/injection, schedule: Q01DX001 (ip), vehicle: saline sonified 100 % of control

c1ccc2c(c1)Sc1ccccc1N2CCCN1CCCC1
inactive: dose: 6.25 mg/kg/injection, schedule: Q01DX009 (ip), vehicle: saline 104 % of control | [1] 104 % of control | [2] 122 % of control

CC(CCC/C=C/CCCN(C)C(=N)N)CC(C)C1OC(=O)C(C)C(O)/C=C/C(C)C(O)C(C)C(O)C(C)C(O)CCCC(O)CC2(O)OC(CC(OC(=O)CC(=O)O)CC(O)CC(O)C(C)C(O)/C=C/C=C/C1C)CC(O)C2O (centres undefined)
inactive: dose: 1.8 mg/kg/injection, schedule: Q01DX009 (ip), vehicle: saline with Tween-80 124 % of control | dose: 1.82 mg/kg/injection, schedule: Q04DX003 (ip), vehicle: saline 90 % of control | dose: 2.5 mg/kg/injection, schedule: Q01DX001 (ip), vehicle: saline 109 % of control | dose: 3.65 mg/kg/injection, schedule: Q01DX009 (ip), vehicle: saline with Tween-80 116 % of control | dose: 3.65 mg/kg/injection, schedule: Q04DX003 (ip), vehicle: saline 109 % of control | dose: 5.0 mg/kg/injection, schedule: Q01DX001 (ip), vehicle: saline 100 % of control | dose: 7.3 mg/kg/injection, schedule: Q01DX009 (ip), vehicle: saline with Tween-80 104 % of control | dose: 7.3 mg/kg/injection, schedule: Q04DX003 (ip), vehicle: saline 104 % of control | dose: 10.0 mg/kg/injection, schedule: Q01DX001 (ip), vehicle: saline 109 % of control | dose: 10.0 mg/kg/injection, schedule: Q04DX003 (ip), vehicle: saline 100 % of control

NC(=O)C1(NC2CCCCC2)CCN(Cc2ccccc2)CC1
inactive: dose: 50.0 mg/kg/injection, schedule: Q01DX009 (ip), vehicle: gum acacia 107 % of control | dose: 50.0 mg/kg/injection, schedule: Q04DX003 (ip), vehicle: gum acacia 100 % of control | dose: 100.0 mg/kg/injection, schedule: Q01DX009 (ip), vehicle: gum acacia 107 % of control | dose: 100.0 mg/kg/injection, schedule: Q04DX003 (ip), vehicle: gum acacia 91 % of control

CC(=O)Nc1ncnc2n[nH]c(C#N)c12
inactive: dose: 12.5 mg/kg/injection, schedule: Q04DX003 (ip), vehicle: saline with Tween-80 117 % of control | dose: 25.0 mg/kg/injection, schedule: Q04DX003 (ip), vehicle: saline with Tween-80 95 % of control | dose: 50.0 mg/kg/injection, schedule: Q04DX003 (ip), vehicle: saline with Tween-80 104 % of control | [3] 106 % of control

COc1cc(/C=N\O)nc(-c2ccccn2)c1
inactive: [1] 120 % of control | [2] 96 % of control and 120 % of control | [4] 111 % of control and 123 % of control | [5] 114 % of control

COC(C/C=C\C=C\CC/C=C/CC(C)/C=C/C(=C\C(=O)O)CC(=O)O)/C(C)=C\C=C(/C)C(=O)O (centres undefined)
inactive: dose: 1.0 mg/kg/injection, schedule: Q04DX003 (ip), vehicle: saline 100 % of control | dose: 2.0 mg/kg/injection, schedule: Q04DX003 (ip), vehicle: saline 88 % of control | dose: 4.0 mg/kg/injection, schedule: Q01DX009 (ip), vehicle: saline 87 % of control | dose: 4.0 mg/kg/injection, schedule: Q04DX003 (ip), vehicle: saline 94 % of control | dose: 6.0 mg/kg/injection, schedule: Q04DX003 (ip), vehicle: saline 100 % of control | dose: 8.0 mg/kg/injection, schedule: Q01DX009 (ip), vehicle: saline 87 % of control | dose: 8.0 mg/kg/injection, schedule: Q04DX003 (ip), vehicle: saline 108 % of control | dose: 16.0 mg/kg/injection, schedule: Q01DX009 (ip), vehicle: saline 100 % of control | dose: 16.0 mg/kg/injection, schedule: Q04DX003 (ip), vehicle: saline 95 % of control

O=C(/C=C/c1ccncc1)c1ccccc1
inactive: [6] 122 % of control | [7] 113 % of control

O=c1c(O)c(-c2ccc(O)c(O)c2)oc2cc(O)cc(O)c12
inactive: dose: 15.0 mg/kg/injection, schedule: Q01DX009 (ip), vehicle: saline 118 % of control | [2] 108 % of control | dose: 30.0 mg/kg/injection, schedule: Q01DX009 (ip), vehicle: saline 109 % of control | [4] 97 % of control and 112 % of control | [5] 102 % of control and 117 % of control | dose: 125.0 mg/kg/injection, schedule: Q01DX009 (ip), vehicle: saline 118 % of control | [8] 110 % of control | dose: 300.0 mg/kg/injection, schedule: Q01DX009 (ip), vehicle: saline 97 % of control

CC(=O)Nc1ccc(NC2=NCCO2)cc1
inactive: dose: 50.0 mg/kg/injection, schedule: Q01DX001 (ip), vehicle: saline with Tween-80 100 % of control | [6] 95 % of control | [7] 90 % of control

[O-][n+]1c(-c2ccccc2)cn2ccccc21
inactive: [6] 105 % of control | [7] 98 % of control

Cn1c(CC(O)(C(F)(F)F)C(F)(F)F)cc2ccccc21
inactive: dose: 100.0 mg/kg/injection, schedule: Q01DX001 (ip), vehicle: other 87 % of control | dose: 400.0 mg/kg/injection, schedule: Q01DX001 (ip), vehicle: other 95 % of control

CN(C)CCCNc1c2ccccc2nc2cccc([N+](=O)[O-])c12
inactive: dose: 0.2 mg/kg/injection, schedule: Q04DX003 (ip), vehicle: saline 124 % of control | dose: 0.5 mg/kg/injection, schedule: Q04DX003 (ip), vehicle: saline 101 % of control

CCCCCCC(O)CCCCCC
inactive: dose: 100.0 mg/kg/injection, schedule: Q01DX009 (ip), vehicle: other 90 % of control | dose: 200.0 mg/kg/injection, schedule: Q01DX009 (ip), vehicle: other 105 % of control

CCN1CCCC(Nc2nc(Nc3cc(Cl)cc(Cl)c3)nc3ccc(Cl)cc23)C1 (centres undefined)
inactive: dose: 6.25 mg/kg/injection, schedule: Q01DX009 (ip), vehicle: saline with Tween-80 122 % of control | dose: 12.5 mg/kg/injection, schedule: Q01DX009 (ip), vehicle: saline with Tween-80 109 % of control | dose: 25.0 mg/kg/injection, schedule: Q01DX009 (ip), vehicle: saline with Tween-80 109 % of control

c1ccc(-c2cc3c(N4CCOCC4)nnc(N4CCOCC4)c3cn2)cc1
inactive: dose: 50.0 mg/kg/injection, schedule: Q01DX009 (ip), vehicle: saline with Tween-80 89 % of control | dose: 100.0 mg/kg/injection, schedule: Q01DX009 (ip), vehicle: saline with Tween-80 86 % of control

CC(C(Nc1ccc(C(=O)O)cc1)C(F)(F)C(F)(F)C(F)(F)F)[N+](=O)[O-] (centres undefined)
inactive: [6] 95 % of control | [7] 104 % of control | dose: 400.0 mg/kg/injection, schedule: Q01DX001 (ip), vehicle: saline with Tween-80 100 % of control

CCN(CC)CCCNc1ncnc2onc(C)c12
inactive: [3] 101 % of control | dose: 200.0 mg/kg/injection, schedule: Q04DX003 (ip), vehicle: saline with Tween-80 97 % of control | dose: 400.0 mg/kg/injection, schedule: Q04DX003 (ip), vehicle: saline with Tween-80 106 % of control

O/N=C(/C(=N/O)c1ccccc1)c1ccccc1.O/N=C(/C(=N/O)c1ccccc1)c1ccccc1.[Cl][Rh][Cl]
inactive: [2] 119 % of control | [4] 117 % of control | [5] 94 % of control | [8] 103 % of control | dose: 400.0 mg/kg/injection, schedule: Q01DX009 (ip), vehicle: saline 95 % of control

CCCCNC(C)(C)COC(=O)/C=C/c1ccc(OCCCC)cc1
inactive: dose: 6.25 mg/kg/injection, schedule: Q01DX010 (ip), vehicle: saline 100 % of control | dose: 12.5 mg/kg/injection, schedule: Q01DX010 (ip), vehicle: saline 100 % of control | dose: 25.0 mg/kg/injection, schedule: Q01DX010 (ip), vehicle: saline 113 % of control | dose: 50.0 mg/kg/injection, schedule: Q01DX010 (ip), vehicle: saline 100 % of control

Cn1cc(S(C)=O)c(=O)c2ccccc21 (centres undefined)
inactive: [4] 99 % of control | [5] 99 % of control | [8] 111 % of control

CC[C@@H](C(=O)[C@@H](C)[C@@H](O)[C@H](C)CCc1ccc(C)c(O)c1C(=O)O)[C@H]1O[C@](CC)([C@H]2CC[C@](O)(CC)[C@H](C)O2)C[C@@H]1C
inactive: dose: 3.12 mg/kg/injection, schedule: Q01DX009 (ip), vehicle: Klucel (hydroxypropylcellulose) (HPC) 108 % of control | dose: 6.25 mg/kg/injection, schedule: Q01DX009 (ip), vehicle: Klucel (hydroxypropylcellulose) (HPC) 110 % of control | dose: 12.5 mg/kg/injection, schedule: Q01DX009 (ip), vehicle: Klucel (hydroxypropylcellulose) (HPC) 118 % of control and 119 % of control

Reference: PubChem BioAssay AID328 (DTP/NCI, 2004)
